The text below walks through data of patent US12371428B2 (Exelixis, Inc., priority 2019, dated 2025).

The term IC50 denotes the point on the concentration scale where inhibition reaches its midpoint. Low readings indicate inhibition by little substance, high ones a need for much substance.

Test [1] deals with Mer (phospho-Mer, MERTK-transfected 293A cells) (Homo sapiens (Human), UniProt Q12866). In words: Mer autophosphorylation ELISA in transient transfected 293A cells (Example H). The format is cell-based. To be noted: cellular activity; Mer autophosphorylation ELISA in transient transfected 293A cells. The method in brief:
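Human MERTK transiently transfected into 293A cells; compounds as 8-point dose curve in serum-free medium (0.3% DMSO final), 1 h. Lysates assayed by phospho-Mer sandwich ELISA against phospho-Mer standard; DMSO = 100%, reference inhibitor = 0% activity; IC50 from 4-parameter logistic fit.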
For orientation: In an ELISA, binding on a coated surface is turned into a signal by an enzyme label.

The target of test [2] is Human MER (residues 528-999) (Homo sapiens (Human), UniProt Q12866). Put plainly: Human Mer kinase assay, HTRF KinEase (Example C-2). Format: biochemical. To be noted: protocol of Example C-2 (other compounds). The method in brief:
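HTRF KinEase TK assay with MER 528-999 (1 ng/well) in enzymatic buffer plus 5 mM MgCl2 and 1 mM DTT, biotinylated peptide substrate and ATP at Km (40 μM), 3% DMSO final, 60 min at room temperature. Stopped with EDTA detection mix (SA-XL665, TK antibody-Eu3+), read at 665/620 nm after 60 min; IC50 from 10-point 4-parameter fit, normalized to DMSO and 1 μM reference.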

Test [3] deals with Human KDR (residues 790-1356) (Homo sapiens (Human), UniProt P35968). In words: Human KDR kinase assay, HTRF KinEase (Example B-2). Format: biochemical. To be noted: protocol of Example B-2 (other compounds). The method, boiled down: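 Human KDR residues 790-1356 (0.1 ng/well) in buffer with 5 mM MgCl2, 1 mM MnCl2, 1 mM DTT, biotinylated peptide substrate, ATP at Km (4.0 μM), 3% DMSO, 10 compound concentrations; 40 min, room temperature. EDTA stop, streptavidin-XL665/Eu-TK antibody HTRF read 665/620 nm; 4-parameter IC50.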
Human KDR (residues 790-1356), sequence (P35968 790-1356): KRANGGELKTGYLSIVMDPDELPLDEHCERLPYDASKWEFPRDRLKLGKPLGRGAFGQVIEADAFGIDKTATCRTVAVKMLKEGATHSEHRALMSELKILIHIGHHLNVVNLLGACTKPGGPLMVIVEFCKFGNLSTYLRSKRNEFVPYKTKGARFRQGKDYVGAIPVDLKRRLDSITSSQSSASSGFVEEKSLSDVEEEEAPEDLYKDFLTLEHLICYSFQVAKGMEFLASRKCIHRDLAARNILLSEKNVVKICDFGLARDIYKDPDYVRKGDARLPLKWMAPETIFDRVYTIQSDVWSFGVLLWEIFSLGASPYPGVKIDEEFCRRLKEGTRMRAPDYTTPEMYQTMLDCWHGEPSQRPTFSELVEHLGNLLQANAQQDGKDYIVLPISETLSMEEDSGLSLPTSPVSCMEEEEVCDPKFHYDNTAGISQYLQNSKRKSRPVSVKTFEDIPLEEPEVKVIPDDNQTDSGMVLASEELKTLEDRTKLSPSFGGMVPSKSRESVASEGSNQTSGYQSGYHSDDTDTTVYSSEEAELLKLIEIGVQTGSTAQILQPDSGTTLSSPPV

Human MER (residues 528-999), sequence (Q12866 528-999): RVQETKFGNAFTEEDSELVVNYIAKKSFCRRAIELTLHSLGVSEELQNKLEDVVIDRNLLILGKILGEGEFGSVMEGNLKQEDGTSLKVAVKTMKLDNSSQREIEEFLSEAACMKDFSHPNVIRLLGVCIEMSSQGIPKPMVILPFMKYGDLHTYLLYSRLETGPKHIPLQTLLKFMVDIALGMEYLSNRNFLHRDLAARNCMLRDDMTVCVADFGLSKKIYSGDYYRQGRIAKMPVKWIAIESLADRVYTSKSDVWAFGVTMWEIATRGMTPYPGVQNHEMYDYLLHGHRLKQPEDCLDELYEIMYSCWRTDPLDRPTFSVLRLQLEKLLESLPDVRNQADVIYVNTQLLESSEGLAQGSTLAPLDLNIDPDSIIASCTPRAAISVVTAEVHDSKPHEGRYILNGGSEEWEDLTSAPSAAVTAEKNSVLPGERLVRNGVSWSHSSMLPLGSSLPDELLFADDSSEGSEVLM
Mer (phospho-Mer, MERTK-transfected 293A cells), sequence (Q12866 21-999): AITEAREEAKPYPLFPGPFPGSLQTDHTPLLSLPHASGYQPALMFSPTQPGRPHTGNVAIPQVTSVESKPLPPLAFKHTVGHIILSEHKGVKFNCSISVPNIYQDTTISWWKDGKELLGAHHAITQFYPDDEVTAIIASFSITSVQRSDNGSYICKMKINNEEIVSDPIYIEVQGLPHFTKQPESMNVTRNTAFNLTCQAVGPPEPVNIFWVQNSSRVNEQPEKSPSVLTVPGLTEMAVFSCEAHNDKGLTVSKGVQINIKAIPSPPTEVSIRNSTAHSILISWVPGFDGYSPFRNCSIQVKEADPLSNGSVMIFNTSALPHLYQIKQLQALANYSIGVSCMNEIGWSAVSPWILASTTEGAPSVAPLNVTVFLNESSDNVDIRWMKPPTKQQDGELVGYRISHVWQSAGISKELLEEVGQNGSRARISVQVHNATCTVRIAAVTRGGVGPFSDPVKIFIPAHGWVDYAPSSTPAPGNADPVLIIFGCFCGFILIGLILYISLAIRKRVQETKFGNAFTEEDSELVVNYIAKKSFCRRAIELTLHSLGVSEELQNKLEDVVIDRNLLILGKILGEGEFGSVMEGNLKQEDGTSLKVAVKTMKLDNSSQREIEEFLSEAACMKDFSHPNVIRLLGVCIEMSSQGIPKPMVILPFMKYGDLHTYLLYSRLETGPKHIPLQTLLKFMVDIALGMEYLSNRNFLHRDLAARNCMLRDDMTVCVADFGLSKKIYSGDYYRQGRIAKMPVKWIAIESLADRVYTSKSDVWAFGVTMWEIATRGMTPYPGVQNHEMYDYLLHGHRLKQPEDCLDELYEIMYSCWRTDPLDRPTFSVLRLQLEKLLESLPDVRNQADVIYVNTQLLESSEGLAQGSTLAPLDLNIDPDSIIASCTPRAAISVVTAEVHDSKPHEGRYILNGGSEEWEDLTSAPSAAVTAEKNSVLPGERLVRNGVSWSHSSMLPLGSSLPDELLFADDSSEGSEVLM

For the molecule `COc1cnc2c(Oc3ccc(NC(=O)c4n[nH]c(C)c(-c5ccc(F)cc5C)c4=O)cc3F)ccnc2c1` [Compound 249A, N-[3-Fluoro-4-[(7-methoxy-1,5-naphthyridin-4-yl)oxy]phenyl]-5-(4-fluoro-2-methylphenyl)-6-methyl-4-oxo-1H-pyridazine-3-carboxamide], the IC50 was less than 100 nM in test [1], less than 100 nM in test [2] and greater than 300 nM in test [3].
Regarding `COc1cnc2c(Oc3ccc(NC(=O)c4nn(C)c(C)c(-c5ccc(F)cc5)c4=O)cc3F)ccnc2c1` [Compound 250, N-[3-Fluoro-4-[(7-methoxy-1,5-naphthyridin-4-yl)oxy]phenyl]-5-(4-fluorophenyl)-1,6-dimethyl-4-oxopyridazine-3-carboxamide], the concentration for half-maximal inhibition (IC50) in test [1] is less than 100 nM; in test [2] it was less than 100 nM; in test [3], greater than 300 nM.
On to `COc1cnc2c(Oc3ccc(NC(=O)c4nn(C)c(C)c(-c5ccc(F)cc5)c4=O)cc3)ccnc2c1` [Compound 251, 5-(4-Fluorophenyl)-N-[4-[(7-methoxy-1,5-naphthyridin-4-yl)oxy]phenyl]-1,6-dimethyl-4-oxopyridazine-3-carboxamide], for which the IC50 in test [1] was less than 100 nM; in test [2], less than 100 nM; in test [3], greater than 300 nM.
`COCCOc1nc2c(Oc3ccc(NC(=O)c4n[nH]c(C)c(-c5ccc(F)cc5C)c4=O)cc3F)ccnc2cc1OC` [Compound 252, N-[3-Fluoro-4-[[7-methoxy-6-(2-methoxyethoxy)-1,5-naphthyridin-4-yl]oxy]phenyl]-5-(4-fluoro-2-methylphenyl)-6-methyl-4-oxo-1H-pyridazine-3-carboxamide]: the IC50 in test [1] was less than 100 nM; in test [2], less than 100 nM; in test [3], 100 to 300 nM.
On to `COc1cnc2c(Oc3ccc(NC(=O)c4c(C)ncn(-c5ccc(F)cc5)c4=O)cc3F)ccnc2c1` [Compound 256, N-[3-Fluoro-4-[(7-methoxy-1,5-naphthyridin-4-yl)oxy]phenyl]-1-(4-fluorophenyl)-4-methyl-6-oxopyrimidine-5-carboxamide], for which the IC50 in test [1] was less than 100 nM; in test [2], less than 100 nM; in test [3] it was 100 to 300 nM.
Turning to `COc1cnc2c(Oc3ccc(NC(=O)c4c(C)nc(C)n(-c5ccc(F)cc5)c4=O)cc3F)ccnc2c1` [Compound 257, N-[3-Fluoro-4-[(7-methoxy-1,5-naphthyridin-4-yl)oxy]phenyl]-1-(4-fluorophenyl)-2,4-dimethyl-6-oxopyrimidine-5-carboxamide], the IC50 in test [1], in test [2] and in test [3] was less than 100 nM in each case.
In the case of `COc1cnc2c(Oc3ccc(NC(=O)c4c(C)nc(C)n(-c5ccc(F)cc5)c4=O)cc3)ccnc2c1` [Compound 258, 1-(4-Fluorophenyl)-N-[4-[(7-methoxy-1,5-naphthyridin-4-yl)oxy]phenyl]-2,4-dimethyl-6-oxopyrimidine-5-carboxamide], the IC50 in test [1], in test [2] and in test [3] was less than 100 nM throughout.
On to `COc1cc2nccc(Oc3ccc(NC(=O)c4cn(CC(F)(F)F)c(C)c(-c5ccc(F)cc5)c4=O)cc3F)c2cc1OC` [Compound 259, N-[4-(6,7-Dimethoxyquinolin-4-yl)oxy-3-fluorophenyl]-5-(4-fluorophenyl)-6-methyl-4-oxo-1-(2,2,2-trifluoroethyl)pyridine-3-carboxamide], for which the IC50 in test [1] was less than 100 nM; in test [2], less than 100 nM; in test [3], 100 to 300 nM.
For `COc1cnc2c(Oc3ccc(NC(=O)c4cn(CC(F)(F)F)c(C)c(-c5ccc(F)cc5)c4=O)cc3F)ccnc2c1` [Compound 261, N-[3-Fluoro-4-[(7-methoxy-1,5-naphthyridin-4-yl)oxy]phenyl]-5-(4-fluorophenyl)-6-methyl-4-oxo-1-(2,2,2-trifluoroethyl)pyridine-3-carboxamide], the IC50 in test [1] is less than 100 nM; in test [2] it was less than 100 nM; in test [3] it was greater than 300 nM.
For `COc1cc2nccc(Oc3ccc(NC(=O)c4ncc(C)n(-c5ccc(F)cc5)c4=O)cc3)c2nc1OC` [Compound 262, N-[4-[(6,7-Dimethoxy-1,5-naphthyridin-4-yl)oxy]phenyl]-4-(4-fluorophenyl)-5-methyl-3-oxopyrazine-2-carboxamide], the IC50 in test [1], in test [2] and in test [3] was less than 100 nM each time.
